Assay results published in patent US7169762B2, “Substance having physiological property, method for producing the same and uses thereof” (Amino Up Chemical Co., Ltd., priority 2001, dated 2007).

What was measured:
TNF-α and IFN-γ = test: cytokine concentrations in supernatant of LPS-stimulated macrophage (PEC) culture after oral administration to mice; assay type: in vivo, mouse; conditions: 1 g/kg oral for 1 week, C57/BL6 mice; PEC macrophages + LPS 100 ng/ml, 4 hours
Experimental: (§1) The physiological activity assays were performed by forcibly administering 1 g/kg of a sample to 6-week age male C57/BL6 mice for 1 week by oral route. Spleen cells and peritoneal exudate cells (PEC) were collected after sacrificing the animals. They were cultivated and assayed TNF-α, IFN-γ, and IL-2.
PEC (peritoneal exudate cells) collected from mouse abdominal cavity with physiological saline were centrifuged, (1,000 rpm, 10 minutes) to collect cells, which were used as macrophages. To the macrophages LPS (lipopoly saccharide) was added at a final concentration of 100 ng/ml and the cells were cultivated. After 4 hours, TNF-α, IFN-γ, and IL-2 in the culture supernatant were assayed.
(§2) For both a) and b) above, a kit for assaying cytokine (Wako Pure Chemical Industries, Ltd.) was used.

TNF-α, IFN-γ and IL-2 = test: cytokine concentrations in supernatant of ConA-stimulated spleen cell culture after oral administration to mice; assay type: in vivo, mouse; conditions: 1 g/kg oral for 1 week, C57/BL6 mice, IL-2 in culture supernatant (FIGS. 1 to 3)
Experimental: as §1
The collected mouse spleen was homogenized in DMEM medium and the homogenate was centrifuged at 4° C. (1,000 rpm, 5 minutes) To this was added ASK lysis buffer and the mixture was incubated (37° C., 3 minutes) in order to remove erythrocytes, followed by centrifugation (1,000 rpm, 5 minutes). To the spleen cells thus collected was added ConA at a final concentration of 10 μg/ml and cultivated in a microplate. After 15 hours, the culture supernatant was collected for assaying TNF-α, IFN-γ, and IL-2.
as §2

**Q.** With CC(=O)c1occc1OC1OC(CO)C(O)C(O)C1O [substance A, 2-acetyl-3-hydroxyfuran 3-O-α-D-glucopyranoside] as the molecule, how does the “cytokine induction ability, macrophage” value (TNF-α and IFN-γ) read?
**A.** high cytokine induction ability

**Q.** What about the cytokine induction ability (TNF-α, IFN-γ and IL-2) of the same molecule?
**A.** considerable cytokine induction ability
